This assay concerns Botrytis cinerea. Kind of assay: Test for controlling effect against cucumber gray mold. Particulars: 500 ppm wettable powder spray, 5 ml per pot; cucumber first leaf stage; lesion areas three days after inoculation. The format is in vivo, Botrytis cinerea on cucumber.

Turning to `CCCCOC(c1cccc(-n2nc(C(N)=O)nc2C2CCCCC2)c1)C(C)C` (centres unmarked) [Compound 5, 1-[3-[(1-butoxy-2-methyl)propyl]phenyl]-5-cyclohexyl-1H-1,2,4-triazole-3-carboxamide], the “Inhibition rate (%) at concentration of 500 ppm Cucumber gray mold” value was determined as 82%.

With `CCCCOC(c1cccc(-n2nc(C(N)=O)nc2Cc2ccccc2)c1)C(C)C` (centres unmarked) [Compound 6, 1-[3-[(1-butoxy-2-methyl)propyl]phenyl]-5-(phenylmethyl)-1H-1,2,4-triazole-3-carboxamide], the “Inhibition rate (%) at concentration of 500 ppm Cucumber gray mold” value was determined as 80%.
